The source made the active and inactive calls. The rule behind the calls is not given here.
System: Leishmania donovani
Assay: Antileishmanial activity against Leishmania donovani assessed as inhibition of amastigotes at 50 ug/ml
Assay type: functional

| SMILES | inhibition at 50 µg/mL |
| --- | --- |
| N=C(N)c1ccc(OCCCCCOc2ccc(C(=N)N)cc2)cc1 [PENTAMIDINE] | 90% |

System: Leishmania donovani
Assay: Antileishmanial activity against Leishmania donovani assessed as inhibition of promastigotes at 0.5 ug/ml
Assay type: functional

| SMILES | inhibition at 0.5 µg/mL |
| --- | --- |
| N=C(N)c1ccc(OCCCCCOc2ccc(C(=N)N)cc2)cc1 [PENTAMIDINE] | 85% |

System: Leishmania donovani
Assay: Antileishmanial activity against Leishmania donovani assessed as inhibition of promastigotes at 10 ug/ml
Assay type: functional

| SMILES | inhibition at 10 µg/mL |
| --- | --- |
| COc1ccc(CCNC(=O)C(=O)c2c[nH]c3ccccc23)cc1 | 68.5% |
| O=C(NCCc1c[nH]c2ccccc12)C(=O)c1c[nH]c2c(Cl)cccc12 | 99.1% |
| N=C(N)NC(=O)C(=O)c1c[nH]c2ccccc12 | 55% |
| CN1CCN(C(=O)C(=O)c2c[nH]c3ccccc23)CC1 | 35.9% |
| COc1ccc(CCNC(=O)C(=O)c2c[nH]c3ccccc23)cc1OC | 78.2% |
| O=C(NCCCn1ccnc1)C(=O)c1c[nH]c2ccccc12 | 55.5% |
| O=C(NCCCN1CCOCC1)C(=O)c1c[nH]c2ccccc12 | 73% |
| N=C(N)c1ccc(OCCCCCOc2ccc(C(=N)N)cc2)cc1 [PENTAMIDINE] | 30% |
| O=C(NCCc1c[nH]c2ccccc12)C(=O)c1c[nH]c2cc(Br)ccc12 | 99.2% |
| Cn1cc(CCNC(=O)C(=O)c2cn(C)c3ccccc23)c2ccccc21 | 99% |
| O=C(C(=O)N1CCOCC1)c1c[nH]c2ccccc12 | 83.2% |
| O=C(Nc1nc2ccccc2s1)C(=O)c1c[nH]c2ccccc12 | 18% |
| O=C(NCc1ccccc1)C(=O)c1c[nH]c2ccccc12 | 53.9% |
| O=C(NCc1ccco1)C(=O)c1c[nH]c2ccccc12 | 99.2% |
| O=C(NCCc1c[nH]c2ccccc12)C(=O)c1c[nH]c2ccccc12 | 100% |
| O=C(NCCc1cn(S(=O)(=O)c2ccccc2)c2ccccc12)C(=O)c1cn(S(=O)(=O)c2ccccc2)c2ccccc12 | 49% |
| O=C(Nc1ccc2[nH]ccc2c1)C(=O)c1c[nH]c2ccccc12 | 93.7% |

System: Leishmania donovani
Assay: Antileishmanial activity against Leishmania donovani assessed as inhibition of amastigotes at 10 ug/ml
Assay type: functional

| SMILES | inhibition at 10 µg/mL | Activity |
| --- | --- | --- |
| O=C(NCCc1c[nH]c2ccccc12)C(=O)c1c[nH]c2c(Cl)cccc12 | 59.1% |  |
| O=C(NCCc1c[nH]c2ccccc12)C(=O)c1c[nH]c2cc(Br)ccc12 | 75.1% |  |
| Cn1cc(CCNC(=O)C(=O)c2cn(C)c3ccccc23)c2ccccc21 | 97.8% |  |
| O=C(C(=O)N1CCOCC1)c1c[nH]c2ccccc12 | 78.1% |  |
| O=C(NCc1ccco1)C(=O)c1c[nH]c2ccccc12 |  | inactive |
| O=C(NCCc1c[nH]c2ccccc12)C(=O)c1c[nH]c2ccccc12 | 97.7% |  |
| O=C(Nc1ccc2[nH]ccc2c1)C(=O)c1c[nH]c2ccccc12 |  | Active |

— ChEMBL document CHEMBL1140023, “Synthesis of marine alkaloid: 8,9-dihydrocoscinamide B and its analogues as Novel class of antileishmanial agents” (2007)
